The target of data set [1] is T1, Histone-lysine N-methyltransferase NSD2 (Homo sapiens, UniProt O96028).
T1 sequence (O96028 whole entry): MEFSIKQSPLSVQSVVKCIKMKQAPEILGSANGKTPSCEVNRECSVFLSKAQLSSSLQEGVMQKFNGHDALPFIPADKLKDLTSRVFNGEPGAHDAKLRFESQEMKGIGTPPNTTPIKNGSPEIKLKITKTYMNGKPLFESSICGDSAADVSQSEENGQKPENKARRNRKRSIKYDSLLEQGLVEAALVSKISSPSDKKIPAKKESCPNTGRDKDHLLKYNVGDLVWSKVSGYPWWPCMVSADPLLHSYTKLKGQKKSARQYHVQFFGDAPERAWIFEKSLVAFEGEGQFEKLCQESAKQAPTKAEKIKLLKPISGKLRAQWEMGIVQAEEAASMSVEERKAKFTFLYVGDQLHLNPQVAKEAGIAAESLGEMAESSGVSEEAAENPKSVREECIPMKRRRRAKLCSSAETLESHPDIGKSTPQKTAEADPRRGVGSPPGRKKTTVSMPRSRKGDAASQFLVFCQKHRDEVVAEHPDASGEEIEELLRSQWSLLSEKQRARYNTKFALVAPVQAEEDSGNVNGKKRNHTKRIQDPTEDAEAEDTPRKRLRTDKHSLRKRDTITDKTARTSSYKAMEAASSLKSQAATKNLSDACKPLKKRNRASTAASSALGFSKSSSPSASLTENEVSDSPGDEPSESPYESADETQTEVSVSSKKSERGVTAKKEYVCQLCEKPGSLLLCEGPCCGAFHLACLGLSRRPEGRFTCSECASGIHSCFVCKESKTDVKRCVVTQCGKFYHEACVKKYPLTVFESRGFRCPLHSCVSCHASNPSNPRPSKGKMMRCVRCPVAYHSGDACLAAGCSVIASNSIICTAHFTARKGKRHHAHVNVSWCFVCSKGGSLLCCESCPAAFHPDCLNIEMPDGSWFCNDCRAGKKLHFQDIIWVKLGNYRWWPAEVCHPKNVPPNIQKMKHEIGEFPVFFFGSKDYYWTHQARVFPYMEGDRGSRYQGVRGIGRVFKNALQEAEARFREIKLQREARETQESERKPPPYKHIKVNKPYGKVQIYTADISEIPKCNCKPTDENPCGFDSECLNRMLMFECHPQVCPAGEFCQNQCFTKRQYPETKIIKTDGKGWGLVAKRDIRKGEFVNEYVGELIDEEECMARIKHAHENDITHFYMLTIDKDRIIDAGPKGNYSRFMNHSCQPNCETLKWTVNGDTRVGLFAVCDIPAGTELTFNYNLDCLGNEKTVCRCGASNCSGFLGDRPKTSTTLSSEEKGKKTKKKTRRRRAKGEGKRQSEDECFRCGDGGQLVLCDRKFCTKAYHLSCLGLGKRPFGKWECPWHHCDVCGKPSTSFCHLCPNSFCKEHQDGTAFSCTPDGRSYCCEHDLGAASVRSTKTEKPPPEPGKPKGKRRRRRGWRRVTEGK
Description: Inhibition of recombinant human NSD2 (941 to 1240 residues) using SAM as substrate incubated for 3 hrs by AlphaLISA assay. On the technique in general: Alpha assays give light when donor and acceptor beads are brought close together.

For data set [2], the system named is KMS-11. Description: Induction of apoptosis in human KMS-11 cells assessed as downregulation of BCL-XL protein expression at 0.2 to 0.8 uM by Western blot analysis. In kind it is functional, cell-based. The following applies: dose 0.2-0.8 µM. On the technique in general: A western blot detects proteins with antibodies after separation by electrophoresis.
Data set [3] deals with Neural cell adhesion molecule 1 (Homo sapiens) (UniProt P13591). Description: Inhibition of NCAM1 transcriptional activation in human KMS-11 cells assessed as reduction in NCAM1 mRNA expression at 0.5 uM by qRT-PCR analysis. It is filed as cell-based.
The target of data set [4] is Protransforming growth factor alpha (Homo sapiens) (UniProt P01135). As to the kind of experiment: Inhibition of TGFA transcriptional activation in human KMS-11 cells assessed as reduction in TGFA mRNA expression at 0.5 uM by qRT-PCR analysis. It is filed as cell-based. For orientation: Real-time PCR tracks product formation cycle by cycle.
Data set [5] relates to KMS-11. Description: Induction of apoptosis in human KMS-11 cells assessed as early apoptotic cells at 0.2 uM incubated for 72 hrs by Annexin V-FITC/PI staining based flow cytometry analysis (reference value: 3.96%). It is filed as functional.
Data set [6] in a line: Half life in ICR mouse at 3 mg/kg, po measured for 24 hrs by LC-MS/MS analysis. In kind it is ADME, organism-based. The conditions noted are these: in vivo.
For data set [7], the target named is Protein arginine N-methyltransferase 5 (Homo sapiens, UniProt O14744). As to the kind of experiment: Inhibition of PRMT5 (unknown origin) by AlphaLISA assay.
For data set [8], the target named is Histone-lysine N-methyltransferase EZH2 (Homo sapiens, UniProt Q15910). Description: Inhibition of EZH2 (unknown origin) using SAM as substrate preincubated for 10 mins followed by substrate addition and measured after 4 hrs by HTRF analysis.
Data set [9] concerns the target Histone-lysine N-methyltransferase NSD3 (Homo sapiens, UniProt Q9BZ95). As to the kind of experiment: Inhibition of NSD3 (unknown origin).
The target of data set [10] is Histone-arginine methyltransferase CARM1 (Homo sapiens, UniProt Q86X55). As to the kind of experiment: Inhibition of PRMT4 (unknown origin) by AlphaLISA assay.
In data set [11] the test system is KMS-11. As to the kind of experiment: Modulation of Hippo signaling pathway in human KMS-11 cells at 1 uM incubated for 48 hrs by RNA-Seq analysis. The conditions noted are these: filed as modulator. It is filed as cell-based.
Data set [12] relates to THP-1. As to the kind of experiment: Antiproliferative activity against human THP-1 cells harboring wild type NSD2 assessed as inhibition of cell growth incubated for 6 days by CCK-8 assay. It is filed as functional, cell-based. The conditions noted are these: THP-1, 144 h.
Data set [13] deals with Histone-lysine N-methyltransferase NSD2 (Homo sapiens) (UniProt O96028). Description: Binding affinity to human recombinant NSD2 (941 to 1240 residues) at 200 uM by CPMG based NMR analysis.
The subject of data set [14] is KMS-11. As to the kind of experiment: Induction of apoptosis in human KMS-11 cells assessed as dead cells at 0.8 uM incubated for 72 hrs by Annexin V-FITC/PI staining based flow cytometry analysis (reference value: 6.48%). In kind it is functional.
The target of data set [15] is Ras-related protein R-Ras2 (Homo sapiens) (UniProt P62070). As to the kind of experiment: Inhibition of RRAS2 transcriptional activation in human KMS-11 cells assessed as reduction in RRAS2 mRNA expression at 0.5 uM by qRT-PCR analysis. It is filed as cell-based.
Data set [16] concerns KMS-11. Description: Antiproliferative activity against human KMS-11 cells assessed as inhibition of cell growth incubated for 6 days by CCK-8 assay. The conditions noted are these: KMS-11, 144 h. In kind it is functional, cell-based.
For data set [17], the system named is KMS-11. Description: Antitumor activity against human KMS-11 cells xenografted in SCID mouse assessed as tumor growth inhibition at 150 mg/kg, po administered daily for 21 days and measured every 3 days relative to control. In kind it is functional. The conditions noted are these: KMS-11, 504 h, time 21 day, read-out: TGI.
Data set [18] has as its target Basement membrane-specific heparan sulfate proteoglycan core protein (Homo sapiens) (UniProt P98160). Description: Inhibition of HSPG2 transcriptional activation in human KMS-11 cells assessed as reduction in H3K36me2 level in promoter region by ChIP-qPCR analysis. In kind it is cell-based.
For data set [19], the system named is KMS-11. Description: Induction of apoptosis in human KMS-11 cells assessed as late apoptotic cells at 0.5 uM incubated for 72 hrs by Annexin V-FITC/PI staining based flow cytometry analysis (reference value: 6.47%). In kind it is functional.
A short description of data set [20]: Antiproliferative activity against human MINO cells assessed as inhibition of cell growth incubated for 6 days by CCK-8 assay. It is filed as functional, cell-based. The conditions noted are these: 144 h.

Activity calls are given as the source filed them.

Data on one compound can be found in ChEMBL document CHEMBL5316318, “Structural Modification and Pharmacological Evaluation of Substituted Quinoline-5,8-diones as Potent NSD2 Inhibitors” (J Med Chem, 2023).

One may read the IC50 as the concentration needed to halve the response being measured. In general, half-life refers to the time needed for the level to fall by half in the phase considered. Read a low half-life as fast loss.

Histone-lysine N-methyltransferase NSD3, sequence (Q9BZ95 whole entry): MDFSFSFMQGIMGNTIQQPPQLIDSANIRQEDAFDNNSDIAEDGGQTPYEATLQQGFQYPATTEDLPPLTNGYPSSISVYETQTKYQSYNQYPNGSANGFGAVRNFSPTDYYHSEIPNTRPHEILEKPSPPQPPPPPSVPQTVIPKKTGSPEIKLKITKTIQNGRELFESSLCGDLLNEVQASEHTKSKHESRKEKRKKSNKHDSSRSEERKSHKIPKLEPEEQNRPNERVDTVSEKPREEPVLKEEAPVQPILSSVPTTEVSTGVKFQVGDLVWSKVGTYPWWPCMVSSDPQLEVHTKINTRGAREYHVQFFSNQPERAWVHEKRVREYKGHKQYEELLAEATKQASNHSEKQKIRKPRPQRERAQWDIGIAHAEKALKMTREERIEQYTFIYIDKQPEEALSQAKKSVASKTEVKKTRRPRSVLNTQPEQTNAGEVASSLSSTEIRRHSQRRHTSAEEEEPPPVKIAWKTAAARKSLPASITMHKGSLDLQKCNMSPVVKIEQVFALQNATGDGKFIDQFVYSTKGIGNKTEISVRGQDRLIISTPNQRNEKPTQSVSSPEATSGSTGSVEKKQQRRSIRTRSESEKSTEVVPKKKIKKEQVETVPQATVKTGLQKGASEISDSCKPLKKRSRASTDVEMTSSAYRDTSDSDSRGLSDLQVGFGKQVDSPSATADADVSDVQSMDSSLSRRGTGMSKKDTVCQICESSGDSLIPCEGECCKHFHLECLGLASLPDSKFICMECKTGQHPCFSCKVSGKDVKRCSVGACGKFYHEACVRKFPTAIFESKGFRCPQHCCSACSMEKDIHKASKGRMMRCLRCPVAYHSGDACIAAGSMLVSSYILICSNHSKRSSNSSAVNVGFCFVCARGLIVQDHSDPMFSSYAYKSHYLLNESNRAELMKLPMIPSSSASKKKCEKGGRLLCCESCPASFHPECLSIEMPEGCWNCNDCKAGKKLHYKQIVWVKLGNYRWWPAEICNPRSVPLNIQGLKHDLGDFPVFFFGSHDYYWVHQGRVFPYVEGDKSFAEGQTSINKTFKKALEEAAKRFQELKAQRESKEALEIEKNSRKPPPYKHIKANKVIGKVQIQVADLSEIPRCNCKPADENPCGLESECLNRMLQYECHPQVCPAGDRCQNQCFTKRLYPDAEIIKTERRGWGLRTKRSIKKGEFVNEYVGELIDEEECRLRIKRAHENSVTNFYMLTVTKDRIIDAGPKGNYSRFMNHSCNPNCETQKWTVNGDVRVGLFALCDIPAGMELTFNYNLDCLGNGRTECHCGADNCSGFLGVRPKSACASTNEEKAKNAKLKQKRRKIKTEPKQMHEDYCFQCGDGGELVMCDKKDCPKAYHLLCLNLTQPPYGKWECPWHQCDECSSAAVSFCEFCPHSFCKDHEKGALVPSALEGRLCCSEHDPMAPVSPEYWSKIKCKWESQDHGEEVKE
Histone-lysine N-methyltransferase EZH2, sequence (Q15910 whole entry): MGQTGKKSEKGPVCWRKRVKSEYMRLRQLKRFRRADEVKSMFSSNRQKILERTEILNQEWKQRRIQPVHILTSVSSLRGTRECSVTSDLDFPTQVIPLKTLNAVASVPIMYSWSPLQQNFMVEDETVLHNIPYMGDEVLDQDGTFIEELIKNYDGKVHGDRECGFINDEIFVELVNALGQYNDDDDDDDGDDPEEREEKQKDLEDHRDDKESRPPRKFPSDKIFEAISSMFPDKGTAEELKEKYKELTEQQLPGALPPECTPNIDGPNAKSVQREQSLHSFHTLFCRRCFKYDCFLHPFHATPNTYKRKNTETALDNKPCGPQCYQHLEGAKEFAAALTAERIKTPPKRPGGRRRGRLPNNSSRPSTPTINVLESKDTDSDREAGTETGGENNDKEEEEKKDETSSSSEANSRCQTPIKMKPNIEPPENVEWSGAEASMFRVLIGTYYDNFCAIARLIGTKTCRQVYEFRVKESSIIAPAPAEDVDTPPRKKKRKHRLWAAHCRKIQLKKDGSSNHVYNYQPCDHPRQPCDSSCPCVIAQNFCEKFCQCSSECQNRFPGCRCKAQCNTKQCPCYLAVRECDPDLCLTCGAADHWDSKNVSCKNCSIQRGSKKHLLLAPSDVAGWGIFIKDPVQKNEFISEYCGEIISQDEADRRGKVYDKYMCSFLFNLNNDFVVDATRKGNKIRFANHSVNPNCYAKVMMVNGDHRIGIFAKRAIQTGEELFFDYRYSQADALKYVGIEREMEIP
Protransforming growth factor alpha (Homo sapiens), sequence (P01135 whole entry): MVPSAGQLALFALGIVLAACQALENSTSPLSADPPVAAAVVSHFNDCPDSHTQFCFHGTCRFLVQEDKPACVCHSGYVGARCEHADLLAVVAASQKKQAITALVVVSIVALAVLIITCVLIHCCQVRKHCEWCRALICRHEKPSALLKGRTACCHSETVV
Histone-arginine methyltransferase CARM1, sequence (Q86X55 whole entry): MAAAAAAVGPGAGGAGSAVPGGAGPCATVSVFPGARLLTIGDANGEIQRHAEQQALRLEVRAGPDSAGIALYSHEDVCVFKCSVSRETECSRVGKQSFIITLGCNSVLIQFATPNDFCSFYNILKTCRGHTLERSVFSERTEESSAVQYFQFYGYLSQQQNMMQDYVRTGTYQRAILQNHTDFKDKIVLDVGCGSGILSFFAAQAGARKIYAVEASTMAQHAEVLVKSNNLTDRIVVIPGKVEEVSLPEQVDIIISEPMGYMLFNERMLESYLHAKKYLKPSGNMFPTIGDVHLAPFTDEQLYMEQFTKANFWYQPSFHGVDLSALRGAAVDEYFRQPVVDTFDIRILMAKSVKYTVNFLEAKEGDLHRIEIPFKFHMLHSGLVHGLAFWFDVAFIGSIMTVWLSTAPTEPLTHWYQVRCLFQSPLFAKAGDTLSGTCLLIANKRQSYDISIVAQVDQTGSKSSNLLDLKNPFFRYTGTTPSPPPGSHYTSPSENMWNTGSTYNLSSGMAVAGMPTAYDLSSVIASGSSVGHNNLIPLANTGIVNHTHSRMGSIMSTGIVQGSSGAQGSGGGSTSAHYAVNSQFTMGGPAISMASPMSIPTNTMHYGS
Neural cell adhesion molecule 1 (Homo sapiens), sequence (P13591 whole entry): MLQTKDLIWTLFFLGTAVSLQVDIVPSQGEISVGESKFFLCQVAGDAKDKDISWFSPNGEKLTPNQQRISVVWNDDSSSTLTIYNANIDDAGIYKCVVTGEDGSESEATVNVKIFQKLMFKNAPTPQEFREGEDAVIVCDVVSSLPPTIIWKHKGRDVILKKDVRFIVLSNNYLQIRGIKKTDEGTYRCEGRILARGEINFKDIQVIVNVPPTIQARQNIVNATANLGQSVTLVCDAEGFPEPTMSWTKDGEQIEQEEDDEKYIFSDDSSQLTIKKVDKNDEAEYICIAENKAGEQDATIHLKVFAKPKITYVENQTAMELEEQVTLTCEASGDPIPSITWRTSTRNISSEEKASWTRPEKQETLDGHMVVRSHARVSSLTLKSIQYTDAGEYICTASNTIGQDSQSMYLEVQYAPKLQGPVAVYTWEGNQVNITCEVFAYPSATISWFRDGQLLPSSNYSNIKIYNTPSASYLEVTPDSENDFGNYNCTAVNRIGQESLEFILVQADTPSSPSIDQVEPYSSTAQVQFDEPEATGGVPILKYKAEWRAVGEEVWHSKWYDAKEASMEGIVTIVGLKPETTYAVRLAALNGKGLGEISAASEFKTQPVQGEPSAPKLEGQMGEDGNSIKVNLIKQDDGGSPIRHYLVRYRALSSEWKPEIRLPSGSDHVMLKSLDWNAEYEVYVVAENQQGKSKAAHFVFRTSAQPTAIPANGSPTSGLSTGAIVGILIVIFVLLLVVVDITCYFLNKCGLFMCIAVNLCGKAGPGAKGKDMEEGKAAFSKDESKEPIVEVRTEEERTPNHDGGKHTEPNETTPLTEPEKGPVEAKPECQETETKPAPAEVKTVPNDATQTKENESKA
Protein arginine N-methyltransferase 5, sequence (O14744 whole entry): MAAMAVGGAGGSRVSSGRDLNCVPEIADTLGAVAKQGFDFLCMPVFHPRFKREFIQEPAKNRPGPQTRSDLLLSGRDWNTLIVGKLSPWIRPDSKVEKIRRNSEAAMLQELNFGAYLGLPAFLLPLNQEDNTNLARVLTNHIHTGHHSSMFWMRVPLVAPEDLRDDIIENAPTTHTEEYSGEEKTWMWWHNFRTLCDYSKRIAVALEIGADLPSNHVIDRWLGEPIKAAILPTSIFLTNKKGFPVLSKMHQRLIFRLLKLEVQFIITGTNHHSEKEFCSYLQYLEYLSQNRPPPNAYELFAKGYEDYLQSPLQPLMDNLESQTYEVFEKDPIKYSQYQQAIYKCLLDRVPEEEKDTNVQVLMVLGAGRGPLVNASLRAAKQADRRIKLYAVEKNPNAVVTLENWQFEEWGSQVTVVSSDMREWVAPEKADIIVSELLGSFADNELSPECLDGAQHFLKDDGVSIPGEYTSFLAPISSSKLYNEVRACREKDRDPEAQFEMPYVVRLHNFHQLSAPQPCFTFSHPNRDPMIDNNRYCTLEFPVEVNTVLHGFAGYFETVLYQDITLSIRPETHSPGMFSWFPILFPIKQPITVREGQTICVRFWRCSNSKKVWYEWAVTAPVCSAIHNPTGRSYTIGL
Ras-related protein R-Ras2 (Homo sapiens), sequence (P62070 whole entry): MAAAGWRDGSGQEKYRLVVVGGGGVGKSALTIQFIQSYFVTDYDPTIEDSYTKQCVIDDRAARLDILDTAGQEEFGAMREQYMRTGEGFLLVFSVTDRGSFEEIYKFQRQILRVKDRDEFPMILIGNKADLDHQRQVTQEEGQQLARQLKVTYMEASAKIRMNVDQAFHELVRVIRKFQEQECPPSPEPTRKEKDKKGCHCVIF

With `CC#CC(=O)NC12CC(NC3=C(Cl)C(=O)c4ncccc4C3=O)(C1)C2`, the 50% inhibitory concentration (IC50) in data set [1] was 0.23 µM; in data set [7], over 10 µM; in [8], 0.25 µM; in data set [9], 0.75 µM; in data set [10] it was over 10 µM; in data set [12] it was 2.64 µM. The figures for the IC50 in data set [16] and in data set [20] were 0.27 µM and 9.9 µM, respectively. In addition, the outcome in data set [2], in data set [11] and in [13] was Active. Moreover, the inhibition result in data set [3], in [4], in [15] and in data set [18] was “Active” throughout. Besides, the Activity in [5] came out at 4.34%; in data set [14], 5.98%; in [19], 15.7%. In data set [6], this compound gave a half-life of 6.71 h. Moreover, in data set [17], the inhibition in vivo at 150 mg/kg was determined as 58.4%.
